Data as given in publication PMC12291851, “Hydrogen Sulfide (H2S)-Donating Formyl Peptide Receptor 2 (FPR2) Agonists: Design, Synthesis, and Biological Evaluation in Primary Mouse Microglia Culture” (Antioxidants, 2025).

Test system: HepG2 cells
Test: Intracellular H2S release with WSP-1 probe
Format: cell-based, human
Conditions: for intracellular H2S release, WSP-1 fluorescence signal vs vehicle: HepG2, tested concentrations 100-300 μM, 60 min
Description: All cell culture reagents were purchased from S.I.A.L. S.r.l. (Rome, Italy). WSP-1 (Washington State Probe-1, 3′-methoxy-3-oxo-3H-spiro[isobenzofuran-1,9′-xanthen]-6′-yl 2-(pyridine-2-yl-disulfanyl benzoate), was obtained from Cayman Chemical (Cayman, Ann Arbor, MI, USA). HepG2, human hepatocellular carcinoma cells, was obtained from American Type Culture Collection (ATCC, Bethesda, MD, USA). Human hepatocellular carcinoma cells (HepG2) were cultured in Minimum Essential Eagle’s Medium. This medium was supplemented with 10% (v/v) Fetal Bovine Serum, 1% (v/v) Glutamine and 1% (v/v) Penicillin-Streptomycin, 1% non-essential amino acids. Cells were cultivated at 37 °C with 5% CO2 at saturated humidity.
These experiments were carried out as already described. HepG2 cells were cultured up to about 90% confluence, and 24 h before the experiment cells were seeded into a 96-well flat bottom black plate (50,000 cells per well). After 24 h, the medium was replaced and cells were incubated at 37 °C for 30 min with a 10 mM solution of the fluorescent WSP-1 probe, which is highly sensitive for H2S detection. After incubation, the supernatant was removed and replaced with different concentrations (100, 200, and 300 µM) of the tested compounds dissolved in HBSS buffer. […] ADT 100 µM was used as a slow H2S-donor reference compound. Data were analyzed by one-way ANOVA for repeated measures, followed by post hoc Bonferroni’s multiple comparison test. Results are expressed as mean ± SEM of 3 independent experiments in triplicate. Statistical significance was accepted at a level of p < 0.05.
Next, we assessed the intracellular H2S release of thioureas and thioamides in HepG2 cells. The compounds were tested at different concentrations (100–300 μM) to evaluate if the release was dose-dependent. We also assayed ADT-OH and TIA as reference H2S-donors, and 3a as a negative control. The results were normalized to the fluorescence signal obtained with 100 μM ADT-OH.

SMILES | intracellular level of H2S vs reference H2S donor ADT (HepG2, at 200 and 300 μM, p < 0.001 vs. ADT) | intracellular H2S release, WSP-1 fluorescence signal vs vehicle | levels of H2S release in HepG2 cells (summary of WSP-1 results)
N#Cc1ccc(C[C@H](NC(=O)Nc2ccc(F)cc2)C(=S)N2CCc3ccccc32)cc1 [7b, (S)-1-[3-(4-Cyanophenyl)-1-(indolin-1-yl)-1-thioxopropan-2-yl]-3-(4-fluorophenyl)urea] | more than the reference H2S donor ADT | significant fluorescence signal increase at all tested concentrations | very high levels of H2S release
N#Cc1ccc(C[C@H](NC(=O)Nc2ccc(Br)cc2)C(=S)N2CCc3ccccc32)cc1 [8b, (S)-1-(4-Bromophenyl)-3-[3-(4-cyanophenyl)-1-(indolin-1-yl)-1-thioxopropan-2-yl]urea] |  | not statistically significant | 
